In ChEMBL document CHEMBL5584293, “Discovery and evaluation of novel spiroheterocyclic protective agents via a SIRT1 upregulation mechanism in cisplatin-induced premature ovarian failure” (Bioorg Med Chem, 2024):
Active and inactive are the calls of the source. The calls are words filed in the database; no cut-off is given here.

Assays:
[1] = Cytotoxicity against rat NRK cells assessed as cell survival rate at 50 uM incubated for 48 hrs by MTT assay relative to control; format: toxicity, cell-based; conditions: read-out: Survival
[2] = Cytotoxicity against human MIHA cells assessed as cell survival rate at 50 uM incubated for 48 hrs by MTT assay relative to control; format: toxicity, cell-based; conditions: read-out: Survival
[3] = Cytotoxicity against human PDL cells assessed as cell survival rate at 50 uM incubated for 48 hrs by MTT assay relative to control; format: toxicity, cell-based; conditions: read-out: Survival
KGN [4] = assay: Protective effect against cisplatin-induced injury in human KGN cells assessed as cell survival at 25 to 50 uM incubated for 48 hrs by MTT assay; format: functional, cell-based; conditions: dose 25-50 µM
KGN [5] = assay: Protective effect against cisplatin-induced injury in human KGN cells assessed as cell survival at 5 uM incubated for 48 hrs by MTT assay; format: functional, cell-based
Rattus norvegicus [6] = assay: Protective effect against cisplatin-induced damage in Wistar rat assessed as increase in organ indices at 50 mg/kg, IG qd for 14 days; format: functional, organism-based; conditions: time 14.0 day
KGN [7] = assay: Protective effect against cisplatin-induced injury in human KGN cells assessed as cell survival rate at 5 uM incubated for 48 hrs by MTT assay (reference value: 65 %); format: functional; conditions: read-out: Survival
KGN [8] = assay: Protective effect against cisplatin-induced injury in human KGN cells harboring siSIRT1 at 2.5 uM incubated for 36 hrs by Western blot analysis; format: functional, cell-based
Rattus norvegicus [9] = assay: Protective effect against cisplatin-induced damage in Wistar rat assessed as increase in serum E2 level at 50 mg/kg, IG qd for 14 days by ELISA; format: functional, organism-based; conditions: time 14.0 day
KGN [10] = assay: Protective effect against cisplatin-induced injury in human KGN cells assessed as recovery of cell growth at 1 to 10 uM by inverted microscopy; format: functional, cell-based; conditions: dose 1-10 µM
Rattus norvegicus [11] = assay: Protective effect against cisplatin-induced damage in Wistar rat assessed as increase in uterine weight at 50 mg/kg, IG qd for 14 days; format: functional, organism-based; conditions: time 14.0 day
KGN [12] = assay: Protective effect against cisplatin-induced injury in human KGN cells assessed as recovery of cellular disruption at 1 to 10 uM by inverted microscopy; format: functional, cell-based; conditions: dose 1-10 µM
KGN [13] = assay: Protective effect against cisplatin-induced injury in human KGN cells assessed as increase in cell survival incubated for 48 hrs by MTT assay; format: functional, cell-based; conditions: dose 1.25-10 µM
Rattus norvegicus [14] = assay: Protective effect against cisplatin-induced damage in Wistar rat assessed as increase in growing follicle numbers in ovaries at 50 mg/kg, IG qd for 14 days by H and E staining based analysis; format: functional, organism-based; conditions: time 14.0 day
KGN [15] = assay: Protective effect against cisplatin-induced injury in human KGN cells assessed as recovery of cellular suspension at 1 to 10 uM by inverted microscopy; format: functional, cell-based; conditions: dose 1-10 µM
[16] = Toxicity in Wistar rat model of cisplatin-induced damage assessed as body weight loss at 50 mg/kg, IG qd for 7 to 14 days; format: organism-based; conditions: in vivo, po, time 7-14 day
KGN [17] = assay: Protective effect against cisplatin-induced injury in human KGN cells assessed as increase in serum E2 level at 1 to 10 uM by ELISA; format: functional, cell-based; conditions: dose 1-10 µM
KGN [18] = assay: Inhibition of cisplatin-induced apoptosis in human KGN cells assessed as increase in Bcl-2 expression at 1 to 10 uM by immunoblot analysis; format: functional, cell-based; conditions: dose 1-10 µM
KGN [19] = assay: Protective effect against cisplatin-induced injury in human KGN cells assessed as increase in SIRT1 level incubated for 36 hrs by Western blot analysis; format: functional, cell-based; conditions: dose <= 10.0 µM
KGN [20] = assay: Inhibition of cisplatin-induced apoptosis in human KGN cells at 5 uM incubated for 36 hrs by Annexin V-FITC/PI staining based analysis (reference value: 53.9 %); format: functional
KGN [21] = assay: Protective effect against cisplatin-induced injury in human KGN cells assessed as recovery of cell numbers at 1 to 10 uM by inverted microscopy; format: functional, cell-based; conditions: dose 1-10 µM
KGN [22] = assay: Inhibition of cisplatin-induced apoptosis in human KGN cells at 10 uM incubated for 36 hrs by Annexin V-FITC/PI staining based analysis (reference value: 53.9 %); format: functional
Rattus norvegicus [23] = assay: Protective effect against cisplatin-induced damage in Wistar rat assessed as increase in ovarian weight at 50 mg/kg, IG qd for 14 days; format: functional, organism-based; conditions: time 14.0 day
KGN [24] = assay: Protective effect against cisplatin-induced injury in human KGN cells assessed as increase in p-AKT level incubated for 36 hrs by Western blot analysis; format: functional, cell-based; conditions: dose <= 10.0 µM
KGN [25] = assay: Inhibition of cisplatin-induced apoptosis in human KGN cells assessed as decrease in Bax expression at 1 to 10 uM by immunoblot analysis; format: functional, cell-based; conditions: dose 1-10 µM
Rattus norvegicus [26] = assay: Protective effect against cisplatin-induced damage in Wistar rat assessed as increase in primordial follicle numbers in ovaries at 50 mg/kg, IG qd for 14 days by H and E staining based analysis; format: functional, organism-based; conditions: time 14.0 day
Rattus norvegicus [27] = assay: Protective effect against cisplatin-induced damage in Wistar rat assessed as decrease in uterine wall thinning at 50 mg/kg, IG qd for 14 days by H and E staining based analysis; format: functional, organism-based; conditions: time 14.0 day
KGN [28] = assay: Inhibition of cisplatin-induced apoptosis in human KGN cells at 1 uM incubated for 36 hrs by Annexin V-FITC/PI staining based analysis (reference value: 53.9 %); format: functional
Rattus norvegicus [29] = assay: Protective effect against cisplatin-induced damage in Wistar rat assessed as decrease in atretic follicle numbers in ovaries at 50 mg/kg, IG qd for 14 days by H and E staining based analysis; format: functional, organism-based; conditions: time 14.0 day
Rattus norvegicus [30] = assay: Protective effect against cisplatin-induced damage in Wistar rat assessed as increase in sinus follicle numbers in ovaries at 50 mg/kg, IG qd for 14 days by H and E staining based analysis; format: functional, organism-based; conditions: time 14.0 day
Rattus norvegicus [31] = assay: Protective effect against cisplatin-induced damage in Wistar rat assessed as reduction in vascular congestion in ovaries at 50 mg/kg, IG qd for 14 days by H and E staining based analysis; format: functional, organism-based; conditions: time 14.0 day
KGN [32] = assay: Cytotoxicity against human KGN cells at 1.25 to 10 uM incubated for 48 hrs by MTT assay; format: toxicity, cell-based; conditions: dose 1.25-10 µM
Rattus norvegicus [33] = assay: Protective effect against cisplatin-induced damage in Wistar rat assessed as improvement in ovarian structure at 50 mg/kg, IG qd for 14 days by H and E staining based analysis; format: functional, organism-based; conditions: time 14.0 day
KGN [34] = assay: Protective effect against cisplatin-induced injury in human KGN cells assessed as cell survival rate at 5 uM incubated for 48 hrs by MTT assay (Rvb ~ 60 %); format: functional; conditions: read-out: Survival
[35] = Cytotoxicity against human PDL cells assessed as cell viability at 50 uM incubated for 48 hrs by MTT assay; format: toxicity, cell-based
[36] = Cytotoxicity against human MIHA cells assessed as cell viability at 50 uM incubated for 48 hrs by MTT assay; format: toxicity, cell-based
NRK = assay: Cytotoxicity against rat NRK cells assessed as cell viability at 50 uM incubated for 48 hrs by MTT assay; format: toxicity, cell-based

Work on `CN1C[C@H](c2ccccc2)[C@]2(CCC/C(=C\c3ccccc3)C2=O)[C@]12C(=O)c1cccc3cccc2c13` yielded a viability at 48 h, 50 µM [1] of 94%, a viability at 48 h, 50 µM [2] of 89.5% and a viability at 48 h, 50 µM [3] of 97.5%.

With `COc1ccc(/C=C2\CCC[C@@]3(C2=O)[C@@H](c2ccc(OC)cc2)C(C)N[C@@]32C(=O)c3cccc4cccc2c34)cc1` (some centres not stated) the Activity (KGN [4]) was “Active” and the Activity (KGN [5]) was “inactive”.

In the case of `CC1N[C@@]2(C(=O)c3cccc4cccc2c34)[C@@]2(CCC/C(=C\c3ccc(F)cc3)C2=O)[C@H]1c1ccc(F)cc1` (some centres not stated), the Activity (KGN [4]) is reported as “Active” and the Activity (KGN [5]) is reported as “Active”.

In the case of `COc1ccc(/C=C2\CCC[C@@]3(C2=O)[C@@H](c2ccc(OC)c(OC)c2)C(C)N[C@@]32C(=O)c3cccc4cccc2c34)cc1OC` (some centres not stated), the Activity (Rattus norvegicus [6]) is reported as “Active”, the viability at 5 µM (KGN [7]) is reported as 94% and the Activity (KGN [8]) is reported as “inactive”. For the same compound, the Activity (Rattus norvegicus [9]) was “Active”, the Activity (KGN [10]) was “Active” and the Activity (Rattus norvegicus [11]) was “Active”. The Activity (KGN [12]) was “Active”, the Activity (KGN [13]) was “Dose-Dependent Effect” and the Activity (Rattus norvegicus [14]) was “Active”. The Activity (KGN [15]) was “Active”, the Activity [16] was “Non-Toxic” and the Activity (KGN [17]) was “Active”. For the same compound, the inhibition (KGN [18]) was “Active”, the Activity (KGN [19]) was “Dose-Dependent Effect” and the inhibition at 5 µM (KGN [20]) was 21.1%. For the same compound, the Activity (KGN [21]) was “Active”, the inhibition at 10 µM (KGN [22]) was 27.8% and the Activity (Rattus norvegicus [23]) was “Active”. The Activity (KGN [24]) was “Dose-Dependent Effect”, the inhibition (KGN [25]) was “Active” and the Activity (Rattus norvegicus [26]) was “Active”. The Activity (Rattus norvegicus [27]) was “Active”, the Activity (KGN [4]) was “Active” and the inhibition at 1 µM (KGN [28]) was 8.6%. The Activity (Rattus norvegicus [29]) was “Active”, the Activity (Rattus norvegicus [30]) was “Active” and the Activity (Rattus norvegicus [31]) was “Active”. The Activity (KGN [32]) was “Non-Toxic” and the Activity (Rattus norvegicus [33]) was “Active”.

`CC1N[C@@]2(C(=O)c3cccc4cccc2c34)[C@@]2(CCC/C(=C\c3ccccc3)C2=O)[C@H]1c1ccccc1` (some centres not stated) showed a viability at 5 µM (KGN [34]) of 75.3%.

In the case of `COc1cc(/C=C2\CCC[C@@]3(C2=O)[C@@H](c2cc(OC)cc(OC)c2)C(C)N[C@@]32C(=O)c3cccc4cccc2c34)cc(OC)c1` (some centres not stated), the Activity (KGN [4]) is reported as “Active” and the Activity (KGN [5]) is reported as “inactive”.

In the case of `CN1C[C@H](c2ccccc2)[C@]2(CCC/C(=C\c3ccccc3)C2=O)[C@]12C(=O)Nc1ccc(F)cc12`, the Activity [35] is reported as “Non-Toxic”, the Activity [36] is reported as “Non-Toxic” and the Activity (NRK) is reported as “Non-Toxic”.

For `CC1N[C@@]2(C(=O)c3cccc4cccc2c34)[C@@]2(CCC/C(=C\c3ccccc3F)C2=O)[C@H]1c1ccccc1F` (some centres not stated), the Activity (KGN [4]) was “Active” and the Activity (KGN [5]) was “Active”.

For `CN1C[C@H](c2ccccc2)[C@]2(CN(C(=O)OC(C)(C)C)C/C(=C\c3ccccc3)C2=O)[C@]12C(=O)Nc1ccc(F)cc12`, the Activity [35] was “Non-Toxic”, the Activity [36] was “Non-Toxic” and the Activity (NRK) was “Non-Toxic”.

In the case of `CN1C[C@H](c2ccccc2)[C@]2(COC/C(=C\c3ccccc3)C2=O)[C@]12C(=O)Nc1ccc(F)cc12`, the Activity [35] is reported as “Non-Toxic”, the Activity [36] is reported as “Non-Toxic” and the Activity (NRK) is reported as “Non-Toxic”.

With `CN1C[C@H](c2ccccc2)[C@]2(CN(C(=O)OC(C)(C)C)C/C(=C\c3ccccc3)C2=O)[C@]12C(=O)Nc1ccc(Cl)cc12` the Activity [35] was “Non-Toxic”, the Activity [36] was “Non-Toxic” and the Activity (NRK) was “Non-Toxic”.

With `CN1C[C@H](c2ccccc2)[C@H](C(=O)/C=C/c2ccccc2)[C@]12C(=O)Nc1ccc(F)cc12` the Activity [35] was “Toxic”, the Activity [36] was “Toxic” and the Activity (NRK) was “Toxic”.

With `CN1C[C@H](c2ccccc2)[C@]2(CCC/C(=C\c3ccccc3)C2=O)[C@]12C(=O)Nc1ccccc12` the Activity [35] was “Non-Toxic”, the Activity [36] was “Non-Toxic” and the Activity (NRK) was “Non-Toxic”.

In the case of `CN1C[C@H](c2ccccc2)[C@]2(COC/C(=C\c3ccccc3)C2=O)[C@]12C(=O)Nc1ccccc12`, the Activity [35] is reported as “Non-Toxic”, the Activity [36] is reported as “Non-Toxic” and the Activity (NRK) is reported as “Non-Toxic”.
